Laboratory results taken from patent US20260152485A1, “ISOINDOLINONE DERIVATIVE HAVING QUINOLINE AMIDE STRUCTURE, AND USE THEREOF” (ONCORD BIO INC, priority 2022, published 2026).

Legend:
[1] = system: NCI-H1155 (lung cancer cells); experiment: CytoX cell viability assay, NCI-H1155 cells; type: cell-based; details: 72 hours; for viability at 0.01 µM / viability at 0.5 µM: Homo sapiens
Method: The viability of NCI-H1155 (lung cancer cells) was measured using the CytoX cell viability assay kit (LPS Solution, #CYT3000). NCI-H1155 cells were seeded in a 12-well plate, and each compound of the present disclosure and a comparative compound (CC-90009) were treated at 10 nM and 500 nM concentrations for 72 hours. CytoX solution was then added to the cells and incubated for 1 hour.

[2] = system: KG-1 cancer cells; experiment: Cytotoxicity assay (WST-1), KG-1 cells; type: cell-based; details: Homo sapiens, 72 hours
Method: Cancer cells (KG-1) were seeded at a density of 10,000 cells per well in 96-well plates. The compound of the present disclosure and control compounds (Comparative Compounds 1, 2, and 3) were treated at predetermined concentrations. After 72 hours, the cells were treated with WST-1 reagent for 1 hour. Then, absorbance was read at 450 nm using a SpectraMax spectrophotometer to determine cell viability.

O=C1CCC(N2Cc3cc(CNC(=O)C(F)(F)c4ccc(Cl)cc4)ccc3C2=O)C(=O)N1 (stereo not shown) [CC-90009, reference compound]
NCI-H1155 (% viability) at 10 nM ([1]; 10 nM): 85.0%
NCI-H1155 (% viability) at 500 nM ([1]; 500 nM): 23.25%

O=C1CCC(N2Cc3cc(CNC(=O)c4cc(-c5ccccc5)nc5ccccc45)ccc3C2=O)C(=O)N1 (stereo not shown) [Cpd. 1, N-((2-(2,6-dioxopiperidin-3-yl)-1-oxoisoindolin-5-yl)methyl)-2-phenylquinoline-4-carboxamide]
IC50 [2]: 0.8 nM

CC(C)c1ccc(-c2cc(C(=O)NCc3ccc4c(c3)CN(C3CCC(=O)NC3=O)C4=O)c3ccccc3n2)cc1 (stereo not shown) [Cpd. 2, N-((2-(2,6-dioxopiperidin-3-yl)-1-oxoisoindolin-5-yl)methyl)-2-(4-isopropylphenyl)quinoline-4-carboxamide]
IC50 [2]: 1.5 nM

Cc1ccc2nc(-c3ccccc3)cc(C(=O)NCc3ccc4c(c3)CN(C3CCC(=O)NC3=O)C4=O)c2c1 (stereo not shown) [Cpd. 3, N-((2-(2,6-dioxopiperidin-3-yl)-1-oxoisoindolin-5-yl)methyl)-6-methyl-2-phenylquinoline-4-carboxamide]
IC50 [2]: 14 nM

Cc1cccc2c(C(=O)NCc3ccc4c(c3)CN(C3CCC(=O)NC3=O)C4=O)cc(-c3ccccc3)nc12 (stereo not shown) [Cpd. 4, N-((2-(2,6-dioxopiperidin-3-yl)-1-oxoisoindolin-5-yl)methyl)-8-methyl-2-phenylquinoline-4-carboxamide]
IC50 [2]: 1 nM

O=C1CCC(N2Cc3cc(CNC(=O)c4cc(-c5ccncc5)nc5ccccc45)ccc3C2=O)C(=O)N1 (stereo not shown) [Cpd. 7, N-((2-(2,6-dioxopiperidin-3-yl)-1-oxoisoindolin-5-yl)methyl)-2-(pyridin-4-yl)quinoline-4-carboxamide]
viability at 0.01 µM ([1]; 10 nM): 50%
viability at 0.5 µM ([1]; 500 nM): 5%

O=C1CCC(N2Cc3cc(CNC(=O)c4cc(Cl)nc5ccccc45)ccc3C2=O)C(=O)N1 (stereo not shown) [Cpd. 8, 2-chloro-N-((2-(2,6-dioxopiperidin-3-yl)-1-oxoisoindolin-5-yl)methyl)quinoline-4-carboxamide]
viability at 0.01 µM ([1]; 10 nM): 86%
viability at 0.5 µM ([1]; 500 nM): 23%

O=C1CCC(N2Cc3cc(CNC(=O)c4ccnc5ccccc45)ccc3C2=O)C(=O)N1 (stereo not shown) [Cpd. 9, N-((2-(2,6-dioxopiperidin-3-yl)-1-oxoisoindolin-5-yl)methyl)quinoline-4-carboxamide]
viability at 0.01 µM ([1]; 10 nM): 88%
viability at 0.5 µM ([1]; 500 nM): 25%

Cc1cccc2c(C(=O)NCc3ccc4c(c3)CN(C3CCC(=O)NC3=O)C4=O)cc(-c3cccnc3)nc12 (stereo not shown) [Cpd. 10, N-((2-(2,6-dioxopiperidin-3-yl)-1-oxoisoindolin-5-yl)methyl)-8-methyl-2-(pyridin-3-yl)quinoline-4-carboxamide]
viability at 0.01 µM ([1]; 10 nM): 3%
viability at 0.5 µM ([1]; 500 nM): 4%

Cc1c(-c2ccccc2)nc2ccccc2c1C(=O)NCc1ccc2c(c1)CN(C1CCC(=O)NC1=O)C2=O (stereo not shown) [Cpd. 12, N-((2-(2,6-dioxopiperidin-3-yl)-1-oxoisoindolin-5-yl)methyl)-3-methyl-2-phenylquinoline-4-carboxamide]
viability at 0.01 µM ([1]; 10 nM): 59%
viability at 0.5 µM ([1]; 500 nM): 24%

Cc1ccccc1-c1cc(C(=O)NCc2ccc3c(c2)CN(C2CCC(=O)NC2=O)C3=O)c2ccccc2n1 (stereo not shown) [Cpd. 13, N-((2-(2,6-dioxopiperidin-3-yl)-1-oxoisoindolin-5-yl)methyl)-2-(o-tolyl)quinoline-4-carboxamide]
viability at 0.01 µM ([1]; 10 nM): 32%
viability at 0.5 µM ([1]; 500 nM): 26%

O=C1CCC(N2Cc3cc(CNC(=O)c4cc(-c5ccc(F)cc5)nc5ccccc45)ccc3C2=O)C(=O)N1 (stereo not shown) [Cpd. 14, N-((2-(2,6-dioxopiperidin-3-yl)-1-oxoisoindolin-5-yl)methyl)-2-(4-fluorophenyl)quinoline-4-carboxamide]
viability at 0.01 µM ([1]; 10 nM): 33%
viability at 0.5 µM ([1]; 500 nM): 23%

O=C1CCC(N2Cc3cc(CNC(=O)c4cc(-c5ccccc5F)nc5ccccc45)ccc3C2=O)C(=O)N1 (stereo not shown) [Cpd. 15, N-((2-(2,6-dioxopiperidin-3-yl)-1-oxoisoindolin-5-yl)methyl)-2-(2-fluorophenyl)quinoline-4-carboxamide]
viability at 0.01 µM ([1]; 10 nM): 31%
viability at 0.5 µM ([1]; 500 nM): 26%

O=C1CCC(N2Cc3cc(CNC(=O)c4cc5ccccc5cn4)ccc3C2=O)C(=O)N1 (stereo not shown) [compound 1, N-((2-(2,6-dioxopiperidin-3-yl)-1-oxoisoindolin-5-yl)methyl)isoquinoline-3-carboxamide, reference compound]
IC50 [2]: > 10000 nM

O=C1CCC(N2Cc3cc(CNC(=O)c4cnc5ccccc5n4)ccc3C2=O)C(=O)N1 (stereo not shown) [compound 2, N-((2-(2,6-dioxopiperidin-3-yl)-1-oxoisoindolin-5-yl)methyl)quinolxaline-2-carboxamide, reference compound]
IC50 [2]: > 10000 nM

O=C1CCC(N2Cc3cc(CNC(=O)c4ccc5cc(Cl)ccc5n4)ccc3C2=O)C(=O)N1 (stereo not shown) [compound 3, 6-chloro-N-((2-(2,6-dioxopiperidin-3-yl)-1-oxoisoindolin-5-yl)methyl)quinoline-2-carboxamide, reference compound]
IC50 [2]: 4100 nM
